Laboratory results: US8399451B2, “Heterocyclic compounds” (Bristol-Myers Squibb Company, priority 2009, dated 2013)
Where a name gives a salt, the structure may show the parent alone.

Legend:
S1P1 [1] = biological target: T1, S1P1 (Homo sapiens, UniProt P21453); assay: Receptor [35S] GTPγS Binding Assay, membranes from S1P1/CHO cells; type: biochemical; design: expressed in transfected cells; host or cells: S1P1/CHO cells; settings: for EC50: membranes from S1P1/CHO cells, read-out: S1P1 GTPγS EC50; for S1P3/S1P1 GTPγS (ratio of S1P3 GTPγS EC50 to S1P1 GTPγS EC50): selectivity ratio calculated from Table B, * may be greater than reported value due to S1P3 assay limits
T1 sequence (P21453 whole entry): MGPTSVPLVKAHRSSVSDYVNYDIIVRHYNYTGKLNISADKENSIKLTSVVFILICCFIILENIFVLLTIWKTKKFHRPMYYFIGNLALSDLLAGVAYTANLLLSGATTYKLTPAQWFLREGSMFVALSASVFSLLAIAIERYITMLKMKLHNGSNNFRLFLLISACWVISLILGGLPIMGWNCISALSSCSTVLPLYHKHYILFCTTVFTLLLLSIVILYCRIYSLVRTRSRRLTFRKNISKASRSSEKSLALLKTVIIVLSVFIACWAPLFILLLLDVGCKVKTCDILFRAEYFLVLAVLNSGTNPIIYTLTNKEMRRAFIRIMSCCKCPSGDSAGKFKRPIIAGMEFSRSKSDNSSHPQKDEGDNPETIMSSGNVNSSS
Procedure: (§1) Receptor [35S] GTPγS Binding Assays
(§2) Membranes prepared from S1P1/CHO cells or EDG3-Ga15-bla HEK293T cells were added to the compound plate (40 μl/well, final protein 3 μg/well) with MULTIDROP®. [^35S]GTP (1250 Ci/mmol, Perkin Elmer) was diluted in assay buffer: 20 mM HEPES, pH7.5, 10 mM MgCl2, 150 mM NaCl, 1 mM EGTA, 1 mM DTT, 10 μM GDP, 0.1% fatty acid free BSA, and 10 μg/ml Saponin to 0.4 nM. 40 μl of the [^35S] GTP solution was added to the compound plate with a final concentration of 0.2 nM. […] At the end of incubation, all the mixtures in the compound plate were transferred to a 384 well FB filter plates via GPCR robot system. […] 30 μl of MicroScint 20 scintillation fluid was added to each well for counting at Packard TOPCOUNT®.

S1P3 = biological target: T2, S1P3 (Homo sapiens, UniProt Q99500); assay: Receptor [35S] GTPγS Binding Assay, membranes from EDG3-Ga15-bla HEK293T cells; type: biochemical; settings: * detection limit 31,000 nM or 62,000 nM
T2 construct: expressed in transfected cells; host or cells: EDG3-Ga15-bla HEK293T cells
T2 sequence (Q99500 whole entry): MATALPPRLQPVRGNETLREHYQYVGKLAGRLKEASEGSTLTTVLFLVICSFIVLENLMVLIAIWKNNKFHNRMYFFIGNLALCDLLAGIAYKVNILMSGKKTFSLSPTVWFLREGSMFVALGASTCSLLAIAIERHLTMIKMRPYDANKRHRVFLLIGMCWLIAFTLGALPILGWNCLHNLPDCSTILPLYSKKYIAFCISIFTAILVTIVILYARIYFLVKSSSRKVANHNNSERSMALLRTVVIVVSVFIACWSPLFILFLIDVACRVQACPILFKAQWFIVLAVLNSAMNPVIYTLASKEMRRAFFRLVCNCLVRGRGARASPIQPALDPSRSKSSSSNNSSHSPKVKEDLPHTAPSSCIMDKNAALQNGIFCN
Procedure: as §1, §2

S1P1 [2] = biological target: T1, S1P1; assay: S1P1 Binding Assay (33P-S1P radioligand competition, membranes); design: expressed in transfected cells; host or cells: CHO cells; settings: membranes from CHO cells expressing human S1P1; 0.03 nM 33P-S1P; rounded to two digits
Procedure: Membranes were prepared from CHO cells expressing human S1P1. Cells were dissociated in buffer containing 20 mM HEPES, pH 7.5, 50 mM NaCl, 2 mM EDTA and Protease Inhibitor cocktail (Roche), and disrupted on ice using the Polytron homogenizer. The homogenate was centrifuged at 20,000 rpm (48,000 G) and the supernatant was discarded. The membrane pellets were resuspended in buffer containing 50 mM HEPES, pH 7.5, 100 mM NaCl, 1 mM MgCl2, 2 mM EDTA and stored in aliquots at −80° C. after protein concentration determination.
Binding was performed for 45 minutes at room temperature, terminated by collecting the membranes onto GF/B filter plates, and radioactivity was measured by TOPCOUNT®. The competition data of the test compounds over a range of concentrations was plotted as percentage inhibition of radioligand specific binding.
The results in Table A were rounded to two digits.

| SMILES | EC50 (S1P1 [1]) [nM] | S1P3/S1P1 GTPγS (ratio of S1P3 GTPγS EC50 to S1P1 GTPγS EC50) (S1P1 [1]) | EC50 (S1P3) [nM] | IC50 (S1P1 [2]) [nM] |
| --- | --- | --- | --- | --- |
| O=C(O)C1CN(CC(O)c2ccc(-c3noc(-c4onc(-c5ccccc5)c4C(F)(F)F)n3)cc2)CCO1 (stereo not drawn) [Example 28, 4-(2-Hydroxy-2-(4-(5-(3-phenyl-4-(trifluoromethyl)isoxazol-5-yl)-1,2,4-oxadiazol-3-yl)phenyl)ethyl)morpholine-2-carboxylic acid] | – | – | – | 31 |
| O=C(O)CC1CN(CC(O)c2ccc(-c3noc(-c4onc(-c5ccccc5)c4C(F)(F)F)n3)cc2)C1 (stereo not drawn) [Example 27, 2-(1-(2-Hydroxy-2-(4-(5-(3-phenyl-4-(trifluoromethyl)isoxazol-5-yl)-1,2,4-oxadiazol-3-yl)phenyl)ethyl)azetidin-3-yl)acetic acid] | – | – | – | 14 |
| O=C(O)C[C@H]1CCCN(C[C@@H](O)c2ccc(-c3noc(-c4cnn(C5CCCCC5)c4C(F)(F)F)n3)cc2)C1 [Example 59, 2-((R)-1-((S)-2-(4-(5-(1-cyclohexyl-5-(trifluoromethyl)-1H-pyrazol-4-yl)-1,2,4-oxadiazol-3-yl)phenyl)-2-hydroxyethyl)piperidin-3-yl)acetic acid, HCl] | 1.8 | 1160 | 2080 | – |
| CCCc1c(-c2nc(-c3ccc(C(O)CN4CC[C@@H]4C(=O)O)cc3)no2)noc1-c1ccccc1 (stereo partly drawn) [Example 7, (2R)-1-(2-Hydroxy-2-(4-(5-(5-phenyl-4-propylisoxazol-3-yl)-1,2,4-oxadiazol-3-yl)phenyl)ethyl)azetidine-2-carboxylic acid] | – | – | – | 12 |
| O=C(O)[C@H]1CCCN(CC(O)c2ccc(-c3noc(-c4ccc(-c5ccccn5)s4)n3)cc2)C1 (stereo partly drawn) [Example 43, (3S)-1-(2-hydroxy-2-(4-(5-(5-(pyridin-2-yl)thiophen-2-yl)-1,2,4-oxadiazol-3-yl)phenyl)ethyl)piperidine-3-carboxylic acid] | 360 | ≥ 170* | > 62000 | – |
| O=C(O)[C@H]1CCCN(CC(O)c2ccc(-c3noc(-c4cc(-c5ccc(Cl)cc5)on4)n3)cc2)C1 (stereo partly drawn) [Example 53, (3S)-1-(2-(4-(5-(5-(4-chlorophenyl)isoxazol-3-yl)-1,2,4-oxadiazol-3-yl)phenyl)-2-hydroxyethyl)piperidine-3-carboxylic acid] | 1900 | ≥ 16* | > 31000 | – |
| O=C(O)C[C@H]1CCCN(C[C@@H](O)c2ccc(-c3noc(-c4ncn(-c5ccc(Cl)cc5)c4C(F)(F)F)n3)cc2)C1 [Example 117, 2-((R)-1-((S)-2-(4-(5-(1-(4-Chlorophenyl)-5-(trifluoromethyl)-1H-imidazol-4-yl)-1,2,4-oxadiazol-3-yl)phenyl)-2-hydroxyethyl)piperidin-3-yl)acetic acid] | 26 | ≥ 2400* | > 62000 | – |
| O=C(O)[C@H]1CCCCN1CC(O)c1ccc(-c2noc(-c3onc(-c4ccccc4)c3C(F)(F)F)n2)cc1 (stereo partly drawn) [Example 41, (2R)-1-(2-Hydroxy-2-(4-(5-(3-phenyl-4-(trifluoromethyl)isoxazol-5-yl)-1,2,4-oxadiazol-3-yl)phenyl)ethyl)piperidine-2-carboxylic acid] | 5.4 | 1400 | 7500 | – |
| Cc1nc(-c2ccccc2)sc1-c1nc(-c2ccc(C(O)CN3CCC[C@H](C(=O)O)C3)cc2)no1 (stereo partly drawn) [Example 46, (3S)-1-(2-hydroxy-2-(4-(5-(4-methyl-2-phenylthiazol-5-yl)-1,2,4-oxadiazol-3-yl)phenyl)ethyl)piperidine-3-carboxylic acid] | 630 | 13 | 8100 | – |
| Cl.O=C(O)C[C@H]1CCCN(C[C@@H](O)c2ccc(-c3noc(-c4cnn(-c5ccc(F)cn5)c4C(F)(F)F)n3)cc2)C1 [Example 82, 2-((R)-1-((S)-2-(4-(5-(1-(5-fluoropyridin-2-yl)-5-(trifluoromethyl)-1H-pyrazol-4-yl)-1,2,4-oxadiazol-3-yl)phenyl)-2-hydroxyethyl)piperidin-3-yl)acetic acid, HCl] | 3 | 2050 | 6090 | – |

Further lines, results first:

| EC50 (S1P1 [1]) [nM] | S1P3/S1P1 GTPγS (ratio of S1P3 GTPγS EC50 to S1P1 GTPγS EC50) (S1P1 [1]) | EC50 (S1P3) [nM] | IC50 (S1P1 [2]) [nM] | SMILES |
| --- | --- | --- | --- | --- |
| 8.6 | 730 | 6300 | – | Cc1ccc(-n2ncc(-c3nc(-c4ccc([C@H](O)CN5CCC[C@H](CC(=O)O)C5)cc4)no3)c2C(F)(F)F)nc1 [Example 94, 2-((R)-1-((S)-2-hydroxy-2-(4-(5-(1-(5-methylpyridin-2-yl)-5-(trifluoromethyl)-1H-pyrazol-4-yl)-1,2,4-oxadiazol-3-yl)phenyl)ethyl)piperidin-3-yl)acetic acid] |
| 6.8 | ≥ 4580* | > 31000 | – | O=C(O)[C@H]1CCCN(C[C@@H](O)c2ccc(-c3noc(-c4cnn(-c5ncc(Cl)cc5Cl)c4C(F)(F)F)n3)cc2)C1 [Example 100, (S)-1-((S)-2-(4-(5-(1-(3,5-dichloropyridin-2-yl)-5-(trifluoromethyl)-1H-pyrazol-4-yl)-1,2,4-oxadiazol-3-yl)phenyl)-2-hydroxyethyl) piperidine-3-carboxylic acid, HCl] |
| 3 | 1100 | 3300 | – | O=C(O)[C@H]1CCCN(C[C@@H](O)c2ccc(-c3noc(-c4cnn(-c5ccc(C(F)(F)F)cn5)c4C(F)(F)F)n3)cc2)C1 [Example 98, (S)-1-((S)-2-hydroxy-2-(4-(5-(5-(trifluoromethyl)-1-(5-(trifluoromethyl)pyridin-2-yl)-1H-pyrazol-4-yl)-1,2,4-oxadiazol-3-yl)phenyl)ethyl)piperidine-3-carboxylic acid, HCl] |
| 1 | 2250 | 2250 | – | O=C(O)[C@H]1CCCN(C[C@@H](O)c2ccc(-c3noc(-c4cnn(C5CCCCC5)c4C(F)(F)F)n3)cc2)C1 [Example 106, (S)-1-((S)-2-(4-(5-(1-cyclohcxyl-5-(trifluoromethyl)-1H-pyrazol-4-yl)-1,2,4-oxadiazol-3-yl)phenyl)-2-hydroxyethyl) piperidine-3-carboxylic acid] |
| 2.1 | 1030 | 2200 | – | O=C(O)C[C@H]1CCCN(C[C@@H](O)c2ccc(-c3noc(-c4cnn(-c5ccc(F)cc5F)c4C(F)(F)F)n3)cc2)C1 [Example 73, 2-((3R)-1-((2S)-2-(4-(5-(1-(2,4-difluorophenyl)-5-(trifluoromethyl)-1H-pyrazol-4-yl)-1,2,4-oxadiazol-3-yl)phenyl)-2-hydroxyethyl)piperidin-3-yl)acetic acid, HCl] |
| 4.5 | ≥ 6900* | > 31000 | – | O=C(O)[C@H]1CCCN(C[C@@H](O)c2ccc(-c3noc(-c4cnn(-c5ccccn5)c4C(F)(F)F)n3)cc2)C1 [Example 104, (S)-1-((S)-2-hydroxy-2-(4-(5-(1-(pyridin-2-yl)-5-(trifluoromethyl)-1H-pyrazol-4-yl)-1,2,4-oxadiazol-3-yl)phenyl)ethyl)pipcridine-3-carboxylic acid] |
| 1.2 | 8800 | 10400 | – | O=C(O)C[C@H]1CCCN(C[C@@H](O)c2ccc(-c3noc(-c4cnn(-c5ccc(Cl)cn5)c4C(F)(F)F)n3)cc2)C1 [Example 70, 2-((R)-1-((S)-2-(4-(5-(1-(5-chloropyridin-2-yl)-5-(trifluoromethyl)-1H-pyrazol-4-yl)-1,2,4-oxadiazol-3-yl)phenyl)-2-hydroxyethyl)piperidin-3-yl)acetic acid, HCl] |
| 3.6 | 6900 | 24800 | – | O=C(O)C[C@H]1CCCN(C[C@@H](O)c2ccc(-c3noc(-c4cnn(-c5ccccc5Cl)c4C(F)(F)F)n3)cc2)C1 [Example 72, 2-((3R)-1-((2S)-2-(4-(5-(1-(2-chlorophenyl)-5-(trifluoromethyl)-1H-pyrazol-4-yl)-1,2,4-oxadiazol-3-yl)phenyl)-2-hydroxyethyl)piperidin-3-yl)acetic acid, HCl] |
| 69 | ≥ 910* | > 62000 | – | Cc1cccc(-c2noc(-c3nc(-c4ccc(C(O)CN5CCC[C@H](C(=O)O)C5)cc4)no3)c2C(F)(F)F)n1 (stereo partly drawn) [Example 37, (3S)-1-(2-Hydroxy-2-(4-(5-(3-(6-methylpyridin-2-yl)-4-(trifluoromethyl)isoxazol-5-yl)-1,2,4-oxadiazol-3-yl)phenyl)ethyl)piperidine-3-carboxylic acid] |
